pIC50: −log10 of the molar value.
Biological target: T1, phospho p-38 alpha kinase (Homo sapiens, UniProt Q16539)
T1 construct: purchased Panvera
Experiment: P-38 alpha kinase assay (spectrophotometric, pyruvate kinase/lactate dehydrogenase coupled)
Assay type: biochemical
Conditions: Table 3; rates from […] to 2 h time frame

T1 sequence (Q16539 whole entry): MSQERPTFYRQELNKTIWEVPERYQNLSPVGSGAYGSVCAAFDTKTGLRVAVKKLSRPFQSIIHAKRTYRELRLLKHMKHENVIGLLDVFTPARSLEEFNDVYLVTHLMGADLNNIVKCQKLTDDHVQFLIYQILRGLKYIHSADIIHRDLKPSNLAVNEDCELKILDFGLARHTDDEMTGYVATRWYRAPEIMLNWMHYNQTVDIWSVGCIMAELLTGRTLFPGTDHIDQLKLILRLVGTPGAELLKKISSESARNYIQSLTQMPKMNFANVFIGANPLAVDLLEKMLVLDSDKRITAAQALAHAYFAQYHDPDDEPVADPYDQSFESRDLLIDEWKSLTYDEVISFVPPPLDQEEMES

SMILES | pIC50
CC(C)(C)c1cc(NC(=O)Nc2cccc(Cl)c2Cl)n(-c2cccc(C(C)(C)O)c2)n1 [Example 476, 1-{3-t-butyl-1-[3-(2-hydroxypropan-2-yl)phenyl]-1H-pyrazol-5-yl}-3-(2,3-dichlorophenyl)urea] | 7.62
CC(C)(C)c1cc(NC(=O)Nc2cccc3ccccc23)n(-c2cccc(CN3C(=O)C(=O)NS3(=O)=O)c2)n1 [Example 482, 1-{5-t-butyl-2-[3-(1,1,3,4-tetraoxo-1λ^6-[1,2,5]thiadiazolidin-2-ylmethyl)phenyl]-2H-pyrazol-3-yl}-3-(naphthalen-1-yl)urea] | 7.08
CC(C)(C)c1cc(NC(=O)Nc2ccc(Cl)cc2)n(-c2cccc(CN3C(=O)C(=O)NS3(=O)=O)c2)n1 [Example 483, 1-{5-t-butyl-2-[3-(1,1,3,4-tetraoxo-1λ^6-[1,2,5]thiadiazolidin-2-ylmethyl)phenyl]-2H-pyrazol-3-yl}-3-(4-chlorophenyl)urea] | 6.57
CC(C)(C)c1cc(NC(=O)Nc2ccc(Cl)cc2)n(-c2cccc(CNC(=O)N3CCOCC3)c2)n1 [Example 489, 1-(3-t-butyl-1-{3-[(morpholine-4-carboxamido)methyl]phenyl}-1H-pyrazol-5-yl)-3-(4-chlorophenyl)urea] | 6.28
CC(C)(C)C1=NC(c2ccc(CC(=O)O)cc2)C(NC(=O)Nc2ccc(Cl)cc2)=C1 (stereo not shown) [Example 506, 2-(4-{5-t-butyl-3-[3-(4-chlorophenyl)ureido]-2H-pyrrol-2-yl}-phenyl)acetic acid] | 7.38
CC(C)(C)c1cc(NC(=O)Nc2cccc(Cl)c2Cl)n(-c2ccc3c(c2)CNCC3)n1 [Example 508, 1-[3-t-butyl-(1,2,3,4-tetrahydroisoquinolin-7-yl)-1H-pyrazol-5-yl]-3-(2,3-dichlorophenyl)urea] | 7.28
Cn1[nH]c(=O)n(Cc2cccc(-n3nc(C(C)(C)C)cc3NC(=O)Nc3cccc(Cl)c3Cl)c2)c1=O [Example 511, 1-{5-t-butyl-2-[3-(1-methyl-3,5-dioxo-[1,2,4]triazolidin-4-ylmethyl)-phenyl]-2H-pyrazol-3-yl}-3-(2,3-dichloro-phenyl)-urea] | 7.62
CC(C)c1cc(NC(=O)Nc2cccc3ccccc23)n(-c2ccc(C(O)C(F)(F)F)cc2)n1 (stereo not shown) [Example 514, 1-(1-(4-(2,2,2-trifluoro-1-hydroxyethyl)phenyl)-3-isopropyl-1H-pyrazol-5-yl)-3-(naphthalen-1-yl)urea] | 6.24
COC(=O)COc1ccc(-n2nc(C(C)(C)C)cc2NC(=O)Nc2cccc3ccccc23)cc1 [Example 519, 1-(3-t-butyl-1-(4-(carbomethoxymethyl)oxyphenyl)-1H-pyrazol-5-yl)-3-(naphthalen-1-yl)urea] | 7.28

The remaining lines, values ahead:

pIC50 | SMILES
7.38 | CC(C)(C)c1cc(NC(=O)Nc2cccc(Cl)c2Cl)n(-c2cccc(C(=O)O)c2)n1 [Example 477, 3-{3-t-butyl-5-[3-(2,3-dichlorophenyl)ureido]-1H-pyrazol-1-yl}benzoic acid]
6.64 | CC(C)(C)c1cc(NC(=O)Nc2ccc(Cl)cc2)n(-c2cccc(CN3C(=O)NC(=O)C3=O)c2)n1 [Example 481, 1-{3-t-butyl-2-{3-[(2,4,5-trioxoimidazolidin-1-yl)methyl]phenyl}-1H-pyrazol-3-yl}-3-(4-chlorophenyl)urea]
7.30 | CC(C)(C)c1cc(NC(=O)Nc2cccc3ccccc23)n(-c2cccc(CNC(=O)N3CCOCC3)c2)n1 [Example 485, 1-(3-t-butyl-1-{3-[(morpholine-4-carboxamido)methyl]phenyl}-1H-pyrazol-5-yl)-3-(naphthalen-1-yl)urea]
7.24 | CC(C)(C)c1cc(NC(=O)Nc2cccc3ccccc23)n(-c2cccc(CNC(=O)N3CCCC3)c2)n1 [Example 486, 1-(3-t-butyl-1-{3-[(pyrrolidine-1-carboxamido)methyl]phenyl}-1H-pyrazol-5-yl)-3-(naphthalen-1-yl)urea]
7.42 | CN(C)C(=O)NCc1cccc(-n2nc(C(C)(C)C)cc2NC(=O)Nc2cccc3ccccc23)c1 [Example 487, 1-{3-t-butyl-1-[3-(3,3-dimethylureidomethyl)phenyl]-1H-pyrazol-5-yl}-3-(naphthalen-1-yl)urea]
6.27 | CC(C)(C)c1cc(NC(=O)Nc2ccc(Cl)cc2)n(-c2cccc(CNC(=O)N3CCCCC3)c2)n1 [Example 488, 1-(3-t-butyl-1-{3-{(piperidine-1-carboxamido)methyl]phenyl}-1H-pyrazol-5-yl)-3-(4-chlorophenyl)urea]
6.47 | CC(C)(C)c1cc(NC(=O)Nc2ccc(Cl)cc2)n(-c2cccc(CNC(=O)N3CCCC3)c2)n1 [Example 490, 1-(3-t-butyl-1-{3-[(pyrrolidine-1-carboxamido)methyl]phenyl}-1H-pyrazol-5-yl)-3-(4-chlorophenyl)urea]
6.47 | CN(C)C(=O)NCc1cccc(-n2nc(C(C)(C)C)cc2NC(=O)Nc2ccc(Cl)cc2)c1 [Example 491, 1-{3-t-butyl-1-[3-(3,3-dimethylureidomethyl)phenyl]-1H-pyrazol-5-yl}-3-(4-chlorophenyl)urea]
7.40 | CN1CCN(C(=O)NCc2cccc(-n3nc(C(C)(C)C)cc3NC(=O)Nc3cccc4ccccc34)c2)CC1 [Example 492, 1-(3-t-butyl-1-{3-[(1-methylpiperazine-4-carboxamido)methyl]phenyl)-1H-pyrazol-5-yl)-3-(naphthalen-1-yl)urea]
6.17 | CC(C)(C)c1cc(NC(=O)Nc2ccc(Cl)cc2)n(-c2cccc(CN3C(=O)C(=O)N(c4ccccc4)C3=O)c2)n1 [Example 494, 1-(3-t-butyl-1-(3-[(2,4,5-trioxo-3-phenylimidazolidin-1-yl)methyl]phenyl}-1H-pyrazol-5-yl)-3-(4-chlorophenyl)urea]
6.60 | CC(C)(C)c1cc(NC(=O)Nc2ccc(Cl)cc2)n(-c2cccc(Cn3c(=O)[nH]n(-c4ccccc4)c3=O)c2)n1 [Example 495, 1-(3-t-butyl-1-{3-[(3,5-dioxo-1-phenyl-1,2,4-triazolidin-4-yl)methyl]phenyl}-1H-pyrazol-5-yl)-3-(4-chlorophenyl)urea]
6.30 | CC(C)(C)c1cc(NC(=O)Nc2cccc3ccccc23)n(-c2ccc3c(c2)CNCC3)n1 [Example 509, 1-[3-t-butyl-1-(1,2,3,4-tetrahydroisoquinolin-7-yl)-1H-pyrazol-5-yl]-3-(naphthalen-1-yl)urea]
6.33 | CC(C)(C)c1cc(NC(=O)Nc2ccc(Cl)cc2)n(-c2ccc3c(c2)CNCC3)n1 [Example 510, 1-[3-t-butyl-1-(1,2,3,4-tetrahydroisoquinolin-7-yl)-1H-pyrazol-5-yl]-3-(4-chlorophenyl)urea]
7.49 | CC(=O)N1CCc2ccc(-n3nc(C(C)(C)C)cc3NC(=O)Nc3cccc(Cl)c3Cl)cc2C1 [Example 512, 1-[1-(2-acetyl-1,2,3,4-tetrahydroisoquinolin-7-yl)-3-t-butyl-1H-pyrazol-5-yl]-3-(2,3-dichlorophenyl)urea]
6.39 | CC(C)(C)c1cc(NC(=O)Nc2ccc3c(c2)OCO3)n(-c2ccc3c(c2)CNCC3)n1 [Example 513, 1-benzo[d][1,3]dioxol-5-yl-3-[3-t-butyl-1-(1,2,3,4-tetrahydroisoquinolin-7-yl)-1H-pyrazol-5-yl]urea]
6.35 | CC(C)(C)c1cc(NC(=O)Nc2ccc(Cl)cc2)n(-c2cccc(C(O)C(F)(F)F)c2)n1 (stereo not shown) [Example 516, 1-(3-t-butyl-1-(3-(2,2,2-trifluoro-1-hydroxyethyl)phenyl)-1H-pyrazol-5-yl)-3-(4-chlorophenyl)urea]
8.04 | CC(C)(C)c1cc(NC(=O)Nc2cccc3ccccc23)n(-c2ccc(OCC(=O)O)cc2)n1 [Example 520, 1-(3-t-butyl-1-(4-(carboxymethyl)oxyphenyl)-1H-pyrazol-5-yl)-3-(naphthalen-1-yl)urea]
6.11 | CC(C)(C)c1cc(NC(=O)Nc2ccccc2)n(-c2ccc(O)cc2)n1 [Example 522, 1-(3-t-butyl-1-(4-hydroxyphenyl)-1H-pyrazol-5-yl)-3-phenylurea]

Same assay, conditions: read-out: % Inhibition @ concentration, Table 3; at 0.1 uM

SMILES | inhibition at 0.1 µM [%]
CC(C)(C)c1cc(NC(=O)Nc2cccc(Cl)c2Cl)n(-c2cccc(Cn3c(=O)[nH]n(-c4ccccc4)c3=O)c2)n1 [Example 499, 1-(3-t-butyl-1-{3-[(3,5-dioxo-1-phenyl-1,2,4-triazolidin-4-yl)methyl]phenyl}-1H-pyrazol-5-yl)-3-(2,3-dichlorophenyl)urea] | 78
CC(C)(C)c1cc(NC(=O)Nc2ccc(Cl)cc2)n(-c2ccc(OCC(=O)O)cc2)n1 [Example 526, 1-(3-t-butyl-1-(4-(carboxymethyl)oxyphenyl)-1H-pyrazol-5-yl)-3-(4-chlorophenyl-1-yl)urea] | 25

Same assay, conditions: read-out: % Inhibition @ concentration, Table 3; at 1 uM

SMILES | inhibition at 1 µM [%]
CN1CCN(C(=O)NCc2cccc(-n3nc(C(C)(C)C)cc3NC(=O)Nc3ccc(Cl)cc3)c2)CC1 [Example 493, 1-(3-t-butyl-1-{3-[(1-methylpiperazine-4-carboxamido)methyl]phenyl}-1H-pyrazol-5-yl)-3-(4-chlorophenyl)urea] | 36
CC(C)(C)c1cc(NC(=O)Nc2ccc(F)cc2)n(-c2cccc(Cn3c(=O)[nH]n(-c4ccccc4)c3=O)c2)n1 [Example 498, 1-(3-t-butyl-1-{3-[(3,5-dioxo-1-phenyl-1,2,4-triazolidin-4-yl)methyl]phenyl}-1H-pyrazol-5-yl)-3-(4-fluorophenyl)urea] | 25
CC(C)(C)c1cc(NC(=O)Nc2cccc(Cl)c2Cl)n(-c2cccc(Cn3c(=O)[nH]n(-c4ccccc4)c3=O)c2)n1 [Example 499, 1-(3-t-butyl-1-{3-[(3,5-dioxo-1-phenyl-1,2,4-triazolidin-4-yl)methyl]phenyl}-1H-pyrazol-5-yl)-3-(2,3-dichlorophenyl)urea] | 95
CCOC(=O)COc1ccc(-n2nc(C(C)(C)C)cc2NC(=O)Nc2ccc(Cl)cc2)cc1 [Example 525] | 11
CC(C)(C)c1cc(NC(=O)Nc2ccc(Cl)cc2)n(-c2ccc(OCC(=O)O)cc2)n1 [Example 526, 1-(3-t-butyl-1-(4-(carboxymethyl)oxyphenyl)-1H-pyrazol-5-yl)-3-(4-chlorophenyl-1-yl)urea] | 70
CC(C)(C)c1cc(NC(=O)Nc2cccc3ccccc23)n(-c2cccc(OCCCN3CCS(=O)(=O)CC3)c2)n1 [Example 528, 1-(5-t-butyl-2-{3-[3-(1,1-dioxo-16-thiomorpholin-4-yl)-propoxy]-phenyl}-2H-pyrazol-3-yl)-3-naphthalen-1-yl-urea] | 35

Same assay, conditions: read-out: % Inhibition @ concentration, Table 3; at 10 uM

SMILES | inhibition at 10 µM [%]
CN1CCN(C(=O)NCc2cccc(-n3nc(C(C)(C)C)cc3NC(=O)Nc3ccc(Cl)cc3)c2)CC1 [Example 493, 1-(3-t-butyl-1-{3-[(1-methylpiperazine-4-carboxamido)methyl]phenyl}-1H-pyrazol-5-yl)-3-(4-chlorophenyl)urea] | 73
CCOC(=O)CCc1cccc(-n2nc(C(F)(F)F)cc2NC(=O)Nc2ccc(Cl)cc2)c1 [Example 529, 3-(3-{5-[3-(4-chloro-phenyl)-ureido]-3-trifluoromethyl-pyrazol-1-yl}-phenyl)-propionic acid ethyl ester] | 40

From patent US20070191336A1 (priority 2003, published 2007)
